{"source": "paper PMC9474474", "about": "“Determination of pharmacokinetics and tissue distribution of a novel lutetium-labeled PSMA-targeted ligand, ^177Lu-DOTA-PSMA-GUL, in rats by using LC–MS/MS” (Scientific Reports, 2022)", "origin": "cited, not measured here", "parameters": "method as in PMID 26985056", "conditions": "cited from earlier work"}
{"compound": "O=C([O-])CN1CCN(CC(=O)[O-])CCN(CC(=O)NCC2CCC(C(=O)N[C@@H](Cc3ccc4ccccc4c3)C(=O)NCCCC[C@H](NC(=O)N[C@@H](CCC(=O)O)C(=O)O)C(=O)O)CC2)CCN(CC(=O)[O-])CC1.[177Lu+3]", "note": "(some centres unmarked) [^177Lu-PSMA-617]", "values": [{"measurement": "elimination half-life", "setting": "humans, radioactivity study", "value": 90, "unit": "h"}, {"measurement": "eliminated by urine", "setting": "patients with PSMA-positive tumor phenotype", "value": "approximately 50%"}]}
